# According to PMC11831560, “Development of the Pyrido[2,3-d]pyrimidin-7(8H)-one Scaffold toward Potent and Selective NUAK1 Inhibitors” (ACS Medicinal Chemistry Letters, 2025):
# Values joined by “and” are separate entries in the source; they are usually repeats but may differ in a detail not shown here. Identical values can stand only once.
# Key:
# NUAK1 = molecular target: T1, NUAK1 (Homo sapiens, UniProt O60285); assay: NanoBRET target engagement assay, HEK293 cells; conditions: cell-based NanoBRET target engagement assay
# T1 sequence (O60285 1-661): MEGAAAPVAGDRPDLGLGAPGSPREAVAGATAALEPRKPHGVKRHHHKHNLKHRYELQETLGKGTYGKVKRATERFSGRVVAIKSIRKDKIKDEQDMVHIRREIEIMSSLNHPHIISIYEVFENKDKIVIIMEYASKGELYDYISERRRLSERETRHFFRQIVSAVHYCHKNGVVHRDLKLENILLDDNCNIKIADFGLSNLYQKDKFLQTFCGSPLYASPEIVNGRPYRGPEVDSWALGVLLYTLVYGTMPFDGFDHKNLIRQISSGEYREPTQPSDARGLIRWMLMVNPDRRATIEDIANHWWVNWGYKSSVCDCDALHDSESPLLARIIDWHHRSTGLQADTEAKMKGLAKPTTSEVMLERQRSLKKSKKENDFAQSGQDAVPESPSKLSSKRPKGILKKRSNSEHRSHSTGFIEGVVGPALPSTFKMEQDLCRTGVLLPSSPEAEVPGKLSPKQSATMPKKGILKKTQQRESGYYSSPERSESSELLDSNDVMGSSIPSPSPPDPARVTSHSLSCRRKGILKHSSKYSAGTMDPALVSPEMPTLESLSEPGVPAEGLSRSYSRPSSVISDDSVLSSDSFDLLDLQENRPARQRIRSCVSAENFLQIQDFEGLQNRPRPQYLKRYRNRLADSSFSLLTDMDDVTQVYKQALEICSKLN
# Experimental: NanoBRET® target engagement assay
# The binding of compounds to NUAK1 in intact cells was assessed using an NanoBRET® TE Intracellular Kinase Assay (Promega N2501). HEK293 cells transiently transfected with NanoLuc®- NUAK1 Fusion Vector (Promega NV1831) were incubated with 10 nL K5 tracer (provided in the kit, Promega N2501) and 40 nL of the test compounds in 100% DMSO in a white low volume non-binding 384 assay plate (Grenier Bio One 784904) for 90 min at 37 °C. After incubation, followed by cooling for 15 min at room temperature, 4 µL of the Intracellular TE Nano-Glo ® Substrate/Inhibitor (Promega N2160) was added to each well. The plate was read using a Pherastar FSX plate reader (BMG Labtech).
# Minimum number of 2 technical replicates per compound.
# Activity pIC50 values and standard error of the mean (SEM) were estimated using a 4-parameter fit (Dotmatics). The SEM for all reported data was 0.2 or lower. See Experimental Procedures for minimum number of replicates per compound. Each experiment included a Standard compound whose pIC50 value was compared to a quality control chart. If the Standard pIC50 value fell outside the range of pIC50 +/-3 standard deviation, then the experiment was invalidated. […]
# MARK4 = molecular target: T2, MARK4 (Homo sapiens, UniProt Q96L34); assay: ADP-Glo biochemical assay MARK4; conditions: for MARK4 pIC50 / IC50: ADP-Glo assay; for IC50: read-out: MARK4 pIC50 (converted)
# T2 construct: purchased MRC PPU
# T2 sequence (Q96L34 1-752): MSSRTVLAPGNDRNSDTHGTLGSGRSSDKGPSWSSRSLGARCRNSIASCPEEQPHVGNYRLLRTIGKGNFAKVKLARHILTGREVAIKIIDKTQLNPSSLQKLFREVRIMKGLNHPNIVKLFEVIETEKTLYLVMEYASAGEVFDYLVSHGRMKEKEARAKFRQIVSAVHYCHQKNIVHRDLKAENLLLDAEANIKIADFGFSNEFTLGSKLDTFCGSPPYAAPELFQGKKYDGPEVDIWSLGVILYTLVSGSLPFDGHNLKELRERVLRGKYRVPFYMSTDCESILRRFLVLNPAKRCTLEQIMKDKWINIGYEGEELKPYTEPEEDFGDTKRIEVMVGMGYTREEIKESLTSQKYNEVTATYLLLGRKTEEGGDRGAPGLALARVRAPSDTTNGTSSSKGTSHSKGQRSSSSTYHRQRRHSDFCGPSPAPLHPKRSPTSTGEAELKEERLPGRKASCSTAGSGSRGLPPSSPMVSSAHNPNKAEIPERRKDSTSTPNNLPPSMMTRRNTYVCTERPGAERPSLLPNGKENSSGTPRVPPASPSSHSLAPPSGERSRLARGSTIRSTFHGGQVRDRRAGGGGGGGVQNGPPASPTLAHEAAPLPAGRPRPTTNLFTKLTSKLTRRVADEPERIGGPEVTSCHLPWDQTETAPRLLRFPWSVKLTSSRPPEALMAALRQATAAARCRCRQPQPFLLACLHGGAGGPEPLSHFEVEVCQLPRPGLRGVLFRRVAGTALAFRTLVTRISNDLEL
# Experimental: Biological experimental procedures
# ADP-Glo biochemical assays
# Protein kinase activity in the presence of inhibitor compounds was determined by ADP-Glo assay (Promega), as previously described.1,2 Compounds were serialised using a Labcyte Echo 520 and transferred to 384 well plates (Greiner 784201) followed by the addition 5 µL of substrate containing peptide and ATP at Km in buffer (see Table S6). 5 µL of purified protein was added and the plate was incubated for 60 minutes at room temperature (ng/well; see Table S6). 3 µL of assay mixture was transferred using an Integra Viaflo384 into a white low volume plate (Greiner 781904) prior to the addition of 3 µL of ADP-Glo Reagent™ for a further 40 minute incubation. After incubation with 6 µL of Kinase Detection Reagent for 30 minutes, plate luminescence was read (Pherastar FSX, BMG […]
# 30 mM HEPES pH7.4, 3 mM MgCl2, 3 mM MnCl2, 1.2 mM DTT, 0.01% CHAPS
# Table S6: Conditions for protein kinase ADP-Glo assays
# ATP AT Peptide Peptide Enzyme Enzyme Assay Buffe Min.
# Protein conc. P Peptide name conc. supplier amount supplier vol. r na […]
# NUAK1 µM µM Sakamototide 50 µM Merck 6.7 ng PPU 10 µl A 6
# A µM µM Sakamototide 100 µM Merck 1 ng PPU 10 µl B 2 […]
# aMin. n: Minimum number of technical replicates per compound
SMILES,MARK4 pIC50 (MARK4),MARK4 Fold selectivity IC50/NUAK1 IC50 (MARK4) [fold],IC50 (MARK4) [nM],NUAK1 cell TE pIC50 (NUAK1)
Cc1cc(=O)n(C(C)C)c2nc(Nc3ccc(N4CC5CC(C4)N5C)cc3)ncc12 [Compound 20],–,–,–,6.0
CN1C2CC1CN(c1ccc(Nc3ncc4cc(C#N)c(=O)n(C5CCCC5)c4n3)cc1)C2 [Compound 10],–,–,–,6.2
CN1C2CC1CN(c1ccc(Nc3ncc4ccn(CC5CCOCC5)c4n3)cc1)C2 [Compound 24],4.9,3981,–,7.0
CN1C2CC1CN(c1ccc(Nc3ncc4ccn(CC5CCCO5)c4n3)cc1)C2 (stereo not drawn) [Compound 28],–,1175,6460,6.7
CC(C)N1CCN(c2ccc(Nc3ncc4ccn(CC5CCOC(C)(C)C5)c4n3)cc2)CC1 (stereo not drawn) [Compound 26],–,> 4700,> 25100,6.8
Cc1cc(=O)n(C2CCCC2)c2nc(Nc3ccc(N4CC5CC(C4)N5C)cc3)ncc12 [Compound 9],–,–,–,6.5

# More lines, main results first:
MARK4 pIC50 (MARK4),MARK4 Fold selectivity IC50/NUAK1 IC50 (MARK4) [fold],IC50 (MARK4) [nM],SMILES,NUAK1 cell TE pIC50 (NUAK1)
5.02 and 5.0,363,–,"CN1CCN(c2ccc(Nc3ncc4cc(C#N)c(=O)n(C5CCCC5)c4n3)cc2)CC1 [Compound 3, Narazaciclib, reference compound]",–
5.6,513,2340,CC(C)N1CCN(c2ccc(Nc3ncc4ccn(C5CCCC5)c4n3)cc2)CC1 [Compound 8],6.8
–,776,2630,CC(C)N1CCN(c2ccc(Nc3ncc4ccn(CC5CCCO5)c4n3)cc2)CC1 (stereo not drawn) [Compound 27],6.9
5.19 and 5.2,1549,–,CC(C)N1CCN(c2ccc(Nc3ncc4c(n3)N(C3CCCC3)C(=O)C4)cc2)CC1 [Compound 7],6.6
5.4,871,–,Cc1cc(=O)n(C2CCCC2)c2nc(Nc3ccc(N4CCN(C)CC4)cc3)ncc12 [Compound 4],6.9
